Data on 2 compounds can be found in patent publication US10383938B2 (priority 2010, dated 2019).

For assay [1], the system named is HA-specific IgG2a. On the set-up: species or system mice. As to conditions: mouse, in vivo, sc, 1 mg/kg.
Assay [2] deals with HA-specific IgG1 and IgG2a. On the set-up: species or system Balb/c male mice. The conditions noted are these: mouse, in vivo.

Where “and” joins values, the source holds several entries; their conditions need not be identical. Identical values can stand only once.

`CCCCCCCCCCCCCCCCCC(=O)NCCCCOn1c(CCCC)nc2c(N)nc3ccccc3c21` [N-(4-{[4-amino-2-butyl-1H-imidazo[4,5-c]quinolin-1-yl]oxy}butyl)octadecanamide]: the “HA Specific IgG2a, Serum Dilution End Point” value in assay [1] was determined as 1.42E+04. The “IgG1 End Point” value in assay [2] was 1.7E7 and 1.4E7 and 1.1E7. Also, the “antibody response to HA (in words)” value in assay [2] (0.1 mg/kg) is on record as “greatly enhanced the antibody response”.

For the compound `CCOCc1nc2c(N)nc3ccccc3c2n1CC(C)(C)O` [Resiquimod, resiquimod, reference compound], the “HA Specific IgG2a, Serum Dilution End Point” value in assay [1] was determined as 1.00E+05.
